This is an account of results in US10865384B2, “2,4,5-tri-substituted azole-based casein kinase 1 inhibitors as inducers for cardiomyogenesis” (AGENCY FOR SCIENCE, TECHNOLOGY AND RESEARCH, priority 2014, dated 2020).

The assay concerns hESC3 Nkx2.5eGFP/w cells. The assay is described as follows: Differentiation in 96-U bottom ultra-low attachment well plates, GFP area imaging. It is filed as cell-based, human. As to conditions: 5 μM; for Average GFP %: after CHIR99021, read on day 14, GFP area over embryoid body size; for Average GFP μm^2 / Average Area μm^2: day 14; for Average Area μm^2: embryoid body size.

Regarding `Fc1ccc(-c2nc(-c3c(F)cccc3Br)[nH]c2-c2ccncc2)cc1` [ZQX-21, 4-[2-(2-bromo-6-fluorophenyl)-4(5)-(4-fluorophenyl)-1H-imidazol-5(4)-yl]pyridine], for the setting “Induction Day 2”, the “Average GFP %” value is given as 0.0%, the “Average GFP μm^2” value came out at 0.0 μm^2 and the “Average Area μm^2” value was found to be 1383.8 μm^2. Besides, where the note is “Induction Day 3”, the “Average GFP %” value is recorded as 3.4%, the “Average GFP μm^2” value was found to be 16.9 μm^2 and the “Average Area μm^2” value amounted to 974.3 μm^2.

With `Fc1ccc(-c2nc(-c3c(F)cccc3I)[nH]c2-c2ccncc2)cc1` [ZQX-30, 4-[2-(2-fluoro-6-iodophenyl)-4(5)-(4-fluorophenyl)-1H-imidazol-5(4)-yl]pyridine], for the setting “Induction Day 2”, the “Average GFP %” value amounted to 4.6%, the “Average GFP μm^2” value came to 60.9 μm^2 and the “Average Area μm^2” value came out at 1361.8 μm^2. Under “Induction Day 3”, the “Average GFP %” value worked out at 12.6%, the “Average GFP μm^2” value was 128.3 μm^2 and the “Average Area μm^2” value is 1142.4 μm^2.

In the case of `Nc1ccccc1-c1nc(-c2ccc(F)cc2)c(-c2ccncc2)[nH]1` [ZQX-31, 4-[2-(2-aminophenyl)-4(5)-(4-fluorophenyl)-1H-imidazol-5(4)-yl]pyridine], where the note is “Induction Day 2”, the “Average GFP %” value is on record as 28.9%, the “Average GFP μm^2” value came out at 258.3 μm^2 and the “Average Area μm^2” value was 891.2 μm^2. Where the note is “Induction Day 3”, the “Average GFP %” value was determined as 5.1%, the “Average GFP μm^2” value came out at 96.0 μm^2 and the “Average Area μm^2” value was found to be 1662.3 μm^2.

For `Fc1ccc(-c2nc(-c3ccccc3)[nH]c2-c2ccncc2)cc1` [ZQX-14, 4-[4(5)-(4-fluorophenyl)-2-phenyl-1H-imidazol-5(4)-yl]pyridine], under “Induction Day 2”, the “Average GFP %” value was found to be 42.4%, the “Average GFP μm^2” value was 335.6 μm^2 and the “Average Area μm^2” value stood at 810.7 μm^2. Moreover, where the note is “Induction Day 3”, the “Average GFP %” value amounted to 5.9%, the “Average GFP μm^2” value came to 91.6 μm^2 and the “Average Area μm^2” value is on record as 1474.4 μm^2.

On to `O=C(Nc1cccc2cccnc12)c1ccc(N2C(=O)[C@@H]3[C@H](C2=O)[C@@H]2C=C[C@H]3C2)cc1` [IWR-1, reference compound], for which, under “Induction Day 2”, the “Average GFP %” value turned out to be 41.3%, the “Average GFP μm^2” value amounted to 308.9 μm^2 and the “Average Area μm^2” value stood at 763.0 μm^2. In addition, under “Induction Day 3”, the “Average GFP %” value is on record as 51.1%, the “Average GFP μm^2” value came out at 426.3 μm^2 and the “Average Area μm^2” value is 831.4 μm^2.

As to `O=[N+]([O-])c1ccccc1-c1nc(-c2ccc(F)cc2)c(-c2ccncc2)[nH]1` [ZQX-27, 4-[4(5)-(4-fluorophenyl)-2-(2-nitrophenyl)-1H-imidazol-5(4)-yl]pyridine], under “Induction Day 2”, the “Average GFP %” value was 15.1%, the “Average GFP μm^2” value is on record as 258.6 μm^2 and the “Average Area μm^2” value was found to be 1469.4 μm^2. Further, under “Induction Day 3”, the “Average GFP %” value was 3.4%, the “Average GFP μm^2” value was determined as 57.9 μm^2 and the “Average Area μm^2” value was determined as 1758.3 μm^2.

Take `COc1cc(O)c(-c2nc(-c3ccc(F)cc3)c(-c3ccncc3)[nH]2)c(OC)c1` [ZQX-26, 2-[4(5)-(4-fluorophenyl)-5(4)-(pyridin-4-yl)-1H-imidazol-2-yl]-3,5-dimethoxyphenol]: under “Induction Day 2”, the “Average GFP %” value came to 30.9%, the “Average GFP μm^2” value was 233.9 μm^2 and the “Average Area μm^2” value turned out to be 757.8 μm^2. Moreover, for the setting “Induction Day 3”, the “Average GFP %” value stood at 8.3%, the “Average GFP μm^2” value is given as 88.2 μm^2 and the “Average Area μm^2” value is 1152.7 μm^2.

Turning to `Cc1cccc(C)c1-c1nc(-c2ccc(F)cc2)c(-c2ccncc2)[nH]1` [ZQX-28, 4-[2-(2,6-dimethylphenyl)-4(5)-(4-fluorophenyl)-1H-imidazol-5(4)-yl]pyridine], where the note is “Induction Day 2”, the “Average GFP %” value amounted to 0.0%, the “Average GFP μm^2” value came to 0.0 μm^2 and the “Average Area μm^2” value stood at 302.4 μm^2. Also, for the setting “Induction Day 3”, the “Average GFP %” value is reported as 2.1%, the “Average GFP μm^2” value came to 6.1 μm^2 and the “Average Area μm^2” value was determined as 271.7 μm^2.

Turning to `Fc1ccc(-c2nc(-c3ccccc3Cl)[nH]c2-c2ccncc2)cc1` [ZQX-17, 4-[2-(2-chlorophenyl)-4(5)-(4-fluorophenyl)-1H-imidazol-5(4)-yl]pyridine], where the note is “Induction Day 2”, the “Average GFP %” value was 30.4%, the “Average GFP μm^2” value was determined as 183.0 μm^2 and the “Average Area μm^2” value turned out to be 586.7 μm^2. In addition, under “Induction Day 3”, the “Average GFP %” value is recorded as 24.6%, the “Average GFP μm^2” value was found to be 232.7 μm^2 and the “Average Area μm^2” value is 971.6 μm^2.

Take `COc1ccc([N+](=O)[O-])cc1-c1nc(-c2ccc(F)cc2)c(-c2ccncc2)[nH]1` [ZQX-32, 4-[2-(2-methoxy-5-nitrophenyl)-4(5)-(4-fluorophenyl)-1H-imidazol-5(4)-yl]pyridine]: where the note is “Induction Day 2”, the “Average GFP %” value is reported as 32.8%, the “Average GFP μm^2” value amounted to 157.6 μm^2 and the “Average Area μm^2” value was 483.6 μm^2. For the setting “Induction Day 3”, the “Average GFP %” value stood at 4.6%, the “Average GFP μm^2” value is 41.0 μm^2 and the “Average Area μm^2” value was found to be 790.4 μm^2.

Consider `COc1cccc(F)c1-c1nc(-c2ccc(F)cc2)c(-c2ccncc2)[nH]1` [ZQX-20, 4-[2-(2-fluoro-6-methoxyphenyl)-4(5)-(4-fluorophenyl)-1H-imidazol-5(4)-yl]pyridine], for which the Cardiogenic properties entry (at specific time course (induction day 2 or 3)) was “higher cardiogenic properties as SB203580 and IWP-2”. For the setting “Induction Day 2”, the “Average GFP %” value came to 26.0%, the “Average GFP μm^2” value amounted to 286.8 μm^2 and the “Average Area μm^2” value is reported as 1145.3 μm^2. Under “Induction Day 3”, the “Average GFP %” value worked out at 37.3%, the “Average GFP μm^2” value was 331.1 μm^2 and the “Average Area μm^2” value is 996.2 μm^2.

With `Fc1ccc(-c2nc(-c3c(Cl)cccc3Cl)[nH]c2-c2ccncc2)cc1` [ZQX-15, 4-[2-(2,6-dichlorophenyl)-4(5)-(4-fluorophenyl)-1H-imidazol-5(4)-yl]pyridine], where the note is “Induction Day 2”, the “Average GFP %” value is 0.0%, the “Average GFP μm^2” value was found to be 0.0 μm^2 and the “Average Area μm^2” value was 129.4 μm^2. In addition, for the setting “Induction Day 3”, the “Average GFP %” value is reported as 0.0%, the “Average GFP μm^2” value stood at 0.0 μm^2 and the “Average Area μm^2” value came to 384.0 μm^2.

Take `Cc1ccccc1-c1nc(-c2ccc(F)cc2)c(-c2ccncc2)[nH]1` [ZQX-29, 4-[4(5)-(4-fluorophenyl)-2-(2-methylphenyl)-1H-imidazol-5(4)-yl]pyridine]: for the setting “Induction Day 2”, the “Average GFP %” value is listed as 28.6%, the “Average GFP μm^2” value amounted to 277.1 μm^2 and the “Average Area μm^2” value is listed as 876.4 μm^2. Under “Induction Day 3”, the “Average GFP %” value amounted to 2.7%, the “Average GFP μm^2” value was found to be 39.9 μm^2 and the “Average Area μm^2” value was 1296.6 μm^2.

As for `COc1cccc(OC)c1-c1nc(-c2ccc(F)cc2)c(-c2ccncc2)[nH]1` [ZQX-18, 4-[2-(2,6-dimethoxyphenyl)-4(5)-(4-fluorophenyl)-1H-imidazol-5(4)-yl]pyridine], for the setting “Induction Day 2”, the “Average GFP %” value is on record as 27.5%, the “Average GFP μm^2” value is reported as 207.3 μm^2 and the “Average Area μm^2” value is reported as 579.4 μm^2. Also, for the setting “Induction Day 3”, the “Average GFP %” value was 15.4%, the “Average GFP μm^2” value is 143.4 μm^2 and the “Average Area μm^2” value is reported as 1065.1 μm^2.
